# Laboratory results reported in patent US10208059B2, “Heterocyclic modulators of HIF activity for treatment of disease” (Board of Regents, University of Texas System, priority 2012, dated 2019).
# Counter-ions that a name gives are not always drawn.
# Test system: 293T-HRE-GFP-luc cells
# Test: Cell-based reporter assay for IC50 determinations
# Conditions: hypoxia 6 hrs (1% O2), luminescence, read-out: IC50 Classification
# Procedure: Cell-Based Reporter Assay for IC50 Determinations
# 293T-HRE-GFP-luc cells were routinely maintained in DMEM media (high glucose version with GlutaMAX and HEPES, Gibco, catalog #10564) supplemented with 10% fetal bovine serum and 2 μg/mL puromycin (Invitrogen, catalog #A11138-03) using a humidified incubator (normoxia conditions consisting of 37° C., 5% CO2 and ambient O2).
# In preparation for the reporter assay, cells were harvested and resuspended in DMEM media (high glucose version with GlutaMAX and HEPES) supplemented with 10% fetal bovine serum. Cells were inoculated into 384-well white Culturplates (Perkin Elmer catalog #6007680) at a density of 12,000 cells/well in a volume of 30 μL. The microplates were incubated overnight (approximately 17-19 hours) at 37° C. with 5% CO2 and ambient O2. Stock solutions of the test compounds were prepared in DMSO (Sigma, Catalog #D2650) and serially diluted 1:3 using DMSO. Compounds were additionally diluted (1:50) with culturemedium and 10 μL were added per well to the Culturplate. Following a 30 min. incubation under normoxia conditions, the plates were incubated in hypoxia for 6 hrs. (37° C., 5% CO2 and 1% O2). Steadylite Plus (Perkin Elmer, catalog #6016751) was then added (40 μL/well), the plates were mixed on an orbital shaker at room temperature in the dark for 15 min., and luminescence was measured using an Envision plate reader (Perkin Elmer). IC50 values were calculated using a four-parameter logistic curve fit. Results are shown below in Table 2; ND indicates no data.
row,Structure (SMILES),IC50 [nM]
1,"Cc1nc(-c2nc(-c3ccc(OC(F)(F)F)cc3)no2)nn1Cc1cccc(C#N)c1 [Example 107, 3-((5-methyl-3-(3-(4-(trifluoromethoxy)phenyl)-1,2,4-oxadiazol-5-yl)-1H-1,2,4-triazol-1-yl)methyl)benzonitrile]",100 to 1000
2,"Cc1nc(-c2nc(-c3ccc(OC(F)(F)F)cc3)no2)nn1Cc1cnc(Cl)s1 [Example 17, 5-(1-((2-Chlorothiazol-5-yl)methyl)-5-methyl-1H-1,2,4-triazol-3-yl)-3-(4-(trifluoromethoxy)phenyl)-1,2,4-oxadiazole]",1000 to 10000
3,"COCCCOc1ccc(Cn2nc(-c3nc(-c4ccc(OC(F)(F)F)cc4)no3)nc2C)cn1 [Example 129, 2-(3-methoxypropoxy)-5-[(5-methyl-3-{3-[4-(trifluoromethoxy)phenyl]-1,2,4-oxadiazol-5-yl}-1H-1,2,4-triazol-1-yl)methyl]pyridine]",100 to 1000
4,"Cc1nc(-c2cc(-c3ccc(OC(F)(F)F)cc3)no2)nn1Cc1cccc(N2CCN(C)CC2)c1 [Example 160, 1-methyl-4-{3-[(5-methyl-3-{3-[4-(trifluoromethoxy)phenyl]-1,2-oxazol-5-yl}-1H-1,2,4-triazol-1-yl)methyl]phenyl}piperazine]",< 100
5,"CCCNS(=O)(=O)c1cccc(Cn2nc(-c3nc(-c4ccc(OC(F)(F)F)cc4)no3)nc2C)c1 [Example 137, 3-[(5-methyl-3-{3-[4-(trifluoromethoxy)phenyl]-1,2,4-oxadiazol-5-yl}-1H-1,2,4-triazol-1-yl)methyl]-N-propylbenzene-1-sulfonamide]",< 100
6,"Cc1nc(-c2nc(-c3ccc(OC(F)(F)F)cc3)no2)nn1Cc1ccnc(N2CCS(=O)(=O)CC2)c1 [Example 43, 2-(1,1-Dioxidothiomorpholino)-4-((5-methyl-3-(3-(4-(trifluoromethoxy)phenyl)-1,2,4-oxadiazol-5-yl)-1H-1,2,4-triazol-1-yl)methyl)pyridin-1-ium trifluoroacetate]",100 to 1000
7,"Cc1cccc(Cn2nc(-c3nc(-c4ccc(OC(F)(F)F)cc4)no3)nc2C)n1 [Example 108, 5-(5-methyl-1-((6-methylpyridin-2-yl)methyl)-1H-1,2,4-triazol-3-yl)-3-(4-(trifluoromethoxy)phenyl)-1,2,4-oxadiazole]",1000 to 10000
8,"COc1ccc(Cn2nc(-c3nc(-c4ccc(OC(F)(F)F)cc4)no3)nc2C)cc1C(F)(F)F [Example 112, 5-(1-(4-methoxy-3-(trifluoromethyl)benzyl)-5-methyl-1H-1,2,4-triazol-3-yl)-3-(4-(trifluoromethoxy)phenyl)-1,2,4-oxadiazole]",1000 to 10000
9,"Cc1nc(-c2nc(-c3ccc(OC(F)(F)F)cc3)no2)nn1Cc1cccc(S(=O)(=O)N2CCN(C)CC2)c1 [Example 79, 1-Methyl-4-{3-[(5-methyl-3-{3-[4-(trifluoromethoxy)phenyl]-1,2,4-oxadiazol-5-yl}-1H-1,2,4-triazol-1-yl)methyl]benzenesulfonyl}piperazine]",< 100
10,"COc1cc(Cn2nc(-c3nc(-c4ccc(OC(F)(F)F)cc4)no3)nc2C)ccn1 [Example 135, 2-methoxy-4-[(5-methyl-3-{3-[4-(trifluoromethoxy)phenyl]-1,2,4-oxadiazol-5-yl}-1H-1,2,4-triazol-1-yl)methyl]pyridine]",100 to 1000
11,"Cc1nc(-c2nc(-c3ccc(OC(F)(F)F)cc3)no2)nn1Cc1cccc(N2CCC(C#N)CC2)c1 [Example 51, 1-(3-((5-Methyl-3-(3-(4-(trifluoromethoxy)phenyl)-1,2,4-oxadiazol-5-yl)-1H-1,2,4-triazol-1-yl)methyl)phenyl)piperidine-4-carbonitrile]",< 100
12,"Cc1nc(-c2nc(-c3ccc(OC(F)(F)F)cc3)no2)nn1Cc1cccc(S(=O)(=O)NCC(N)=O)c1 [Example 139, 2-{3-[(5-methyl-3-{3-[4-(trifluoromethoxy)phenyl]-1,2,4-oxadiazol-5-yl}-1H-1,2,4-triazol-1-yl)methyl]benzenesulfonamido}acetamide]",100 to 1000
13,"Cc1nc(-c2nc(-c3ccc(OC(F)(F)F)cc3)no2)nn1Cc1cccc(OC(C)C)c1 [Example 63, 5-(5-Methyl-1-{[3-(propan-2-yloxy)phenyl]methyl}-1H-1,2,4-triazol-3-yl)-3-[4-(trifluoromethoxy)phenyl]-1,2,4-oxadiazole]",< 100
14,"Cc1nc(-c2nc(-c3ccc(OC(F)(F)F)cc3)no2)nn1Cc1cncnc1 [Example 99, 5-(5-methyl-1-(pyrimidin-5-ylmethyl)-1H-1,2,4-triazol-3-yl)-3-(4-(trifluoromethoxy)phenyl)-1,2,4-oxadiazole]",1000 to 10000
15,"Cc1nc(-c2nc(-c3ccc(OC(F)(F)F)cc3)no2)nn1Cc1cccc(OCCCN(C)C)c1 [Example 74, Dimethyl(3-{3-[(5-methyl-3-{3-[4-(trifluoromethoxy)phenyl]-1,2,4-oxadiazol-5-yl}-1H-1,2,4-triazol-1-yl)methyl]phenoxy}propyl)amine]",< 100
16,"Cc1nc(-c2cc(-c3ccc(OC(F)(F)F)cc3)no2)nn1Cc1ccnc(N2CCN(C)CC2)c1 [Example 161, 1-methyl-4-{4-[(5-methyl-3-{3-[4-(trifluoromethoxy)phenyl]-1,2-oxazol-5-yl}-1H-1,2,4-triazol-1-yl)methyl]pyridin-2-yl}piperazine]",< 100
17,"Cc1nc(-c2nc(-c3ccc(OC(F)(F)F)cc3)no2)nn1Cc1cccc(C(=O)N(C)C)c1 [Example 40, N,N-Dimethyl-3-((5-methyl-3-(3-(4-(trifluoromethoxy)phenyl)-1,2,4-oxadiazol-5-yl)-1H-1,2,4-triazol-1-yl)methyl)benzamide]",< 100
18,"Cc1nc(-c2nc(-c3ccc(OC(F)(F)F)cc3)no2)nn1Cc1ccc2c(c1)nnn2C [Example 114, 5-(5-methyl-1-((1-methyl-1H-benzo[d][1,2,3]triazol-5-yl)methyl)-1H-1,2,4-triazol-3-yl)-3-(4-(trifluoromethoxy)phenyl)-1,2,4-oxadiazole]",100 to 1000
19,"Cc1nc(-c2nc(-c3ccc(OC(F)(F)F)cc3)no2)nn1Cc1ccnc(N2CCC(C)(C)CC2)c1 [Example 31, 5-(1-((2-(4,4-Dimethylpiperidin-1-yl)pyridin-4-yl)methyl)-5-methyl-1H-1,2,4-triazol-3-yl)-3-(4-(trifluoromethoxy)phenyl)-1,2,4-oxadiazole]",< 100
20,"Cc1nc(-c2nc(-c3ccc(OC(F)(F)F)cc3)no2)nn1Cc1ccnc(N2CCCC2)c1 [Example 28, 5-(5-Methyl-1-((2-(pyrrolidin-1-yl)pyridin-4-yl)methyl)-1H-1,2,4-triazol-3-yl)-3-(4-(trifluoromethoxy)phenyl)-1,2,4-oxadiazole]",< 100
21,"FC(F)(F)Oc1ccc(-c2noc(-c3nc(C4CC4)n(Cc4ccccc4)n3)n2)cc1 [Example 34, 5-(1-Benzyl-5-cyclopropyl-1H-1,2,4-triazol-3-yl)-3-(4-(trifluoromethoxy)phenyl)-1,2,4-oxadiazole]",1000 to 10000
22,"Cc1nc(-c2nc(-c3ccc(OC(F)(F)F)cc3)cs2)nn1Cc1cccc(O)c1 [Example 151, 3-[(5-methyl-3-{4-[4-(trifluoromethoxy)phenyl]-1,3-thiazol-2-yl}-1H-1,2,4-triazol-1-yl)methyl]phenol]",100 to 1000
23,"Cc1nc(-c2nc(-c3ccc(OC(F)(F)F)cc3)no2)nn1Cc1ccnc(OCCCO)c1 [Example 141, 3-({4-[(5-methyl-3-{3-[4-(trifluoromethoxy)phenyl]-1,2,4-oxadiazol-5-yl}-1H-1,2,4-triazol-1-yl)methyl]pyridin-2-yl}oxy)propan-1-ol]",< 100
24,"Cc1nc(-c2nc(-c3ccc(OC(F)(F)F)cc3)no2)nn1Cc1ccc(C(=O)N2CCN(C)CC2)cc1 [Example 42, (4-((5-Methyl-3-(3-(4-(trifluoromethoxy)phenyl)-1,2,4-oxadiazol-5-yl)-1H-1,2,4-triazol-1-yl)methyl)phenyl)(4-methylpiperazin-1-yl)methanone]",100 to 1000
25,"Cc1nc(-c2ncc(-c3ccc(OC(F)(F)F)cc3)o2)nn1Cc1ccnc(N2CCOCC2)c1 [Example 93, 4-{4-[(5-methyl-3-{5-[4-(trifluoromethoxy)phenyl]-1,3-oxazol-2-yl}-1H-1,2,4-triazol-1-yl)methyl]pyridin-2-yl}morpholine]",100 to 1000
26,"Cc1nc(-c2nc(-c3ccc(OC(F)(F)F)cc3)no2)nn1Cc1ccnc(N2CCOCC2)c1 [Example 10, 4-(4-((5-Methyl-3-(3-(4-(trifluoromethoxy)phenyl)-1,2,4-oxadiazol-5-yl)-1H-1,2,4-triazol-1-yl)methyl)pyridin-2-yl)morpholine]",< 100
27,"Cc1nc(-c2nc(-c3ccc(OC(F)(F)F)cc3)no2)nn1Cc1cnc(N2CCOCC2)s1 [Example 18, 4-(5-((5-Methyl-3-(3-(4-(trifluoromethoxy)phenyl)-1,2,4-oxadiazol-5-yl)-1H-1,2,4-triazol-1-yl)methyl)thiazol-2-yl)morpholine]",1000 to 10000
28,"Cc1nc(-c2nc(-c3ccc(OC(F)(F)F)cc3)no2)nn1Cc1cccc(OCC(O)CO)c1 (stereo not shown) [Example 86, 3-{3-[(5-methyl-3-{3-[4-(trifluoromethoxy)phenyl]-1,2,4-oxadiazol-5-yl}-1H-1,2,4-triazol-1-yl)methyl]phenoxy}propane-1,2-diol]",< 100
